Laboratory results: publication PMC6367069 (Rapid communications in mass spectrometry : RCM, 2019)
Like-named read-outs stand apart in the source and are kept apart here.

Columns and labels:
PPARγ [1] = molecular target: T1, PPARγ (Homo sapiens, UniProt P37231); settings: for binding to immobilized PPARγ (SPR binding analysis): 50 μM and 100 μM analyte, 25 °C; for Kd: single cycle kinetics, heterogeneous ligand model
T1 sequence (P37231 1-505): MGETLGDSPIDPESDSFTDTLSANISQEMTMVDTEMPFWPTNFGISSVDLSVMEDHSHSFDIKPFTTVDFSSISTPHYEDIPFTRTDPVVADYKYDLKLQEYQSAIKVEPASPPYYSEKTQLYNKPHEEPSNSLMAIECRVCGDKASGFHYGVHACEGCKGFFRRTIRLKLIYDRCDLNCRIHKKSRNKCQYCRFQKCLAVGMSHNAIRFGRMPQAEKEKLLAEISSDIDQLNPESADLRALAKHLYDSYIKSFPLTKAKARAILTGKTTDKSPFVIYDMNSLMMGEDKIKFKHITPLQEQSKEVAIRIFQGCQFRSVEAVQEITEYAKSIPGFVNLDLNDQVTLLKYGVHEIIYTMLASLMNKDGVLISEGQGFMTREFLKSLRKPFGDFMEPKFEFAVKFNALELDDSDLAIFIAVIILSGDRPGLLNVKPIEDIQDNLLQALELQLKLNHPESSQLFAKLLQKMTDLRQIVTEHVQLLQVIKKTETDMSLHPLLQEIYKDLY

PPARγ [2] = settings: endogenous ligand of PPARγ; cited from earlier work

SMILES | binding to immobilized PPARγ (SPR binding analysis) (PPARγ [1]) | EC50 (PPARγ [2]) [µM] | Kd (PPARγ [1]; read-out: Kd1) [µM] | Kd (PPARγ [1]; read-out: Kd2) [µM]
CCCCC(CC)COC(=O)c1ccccc1C(=O)OCC(CC)CCCC (centres unmarked) [DEHP, di-(2-ethylhexyl)phthalate] | almost no detectable binding | – | – | –
CCCCC/C=C/C=C1/C(=O)C=C[C@@H]1C/C=C\CCCC(=O)O [15Δ-PGJ2, 15-deoxy-delta-12,14-prostaglandin J2] | direct binding | 2 | 10 | 311
